Measured values as given in PMC5775417 (Scientific Reports, 2018).
Several values for one entry are separate records, joined by “and”; a condition that tells them apart may be missing. Equal values may be shown once. Entries after “also recorded” stand apart in the source; their conditions may differ. Read-outs that look alike come from different tables or passages of the source. One block for each compound: values may come before it.

Experiments:
E95^2.65A c-myc-D2LR = target: T1, E95^2.65A c-myc-D2LR (Homo sapiens, UniProt P14416, E95A); experiment: [3H]spiperone competition binding, membranes of Flp-In CHO cells; conditions: for Ki / α (cooperativity factor with [3H]spiperone) / logα (logarithm of the cooperativity factor between the modulator and [3H]spiperone) / Kb: E95A; for Ki: 100 µM GppNHp; for fold decrease in affinity at E95A mutant in the absence of Na+ vs E95A in the presence of Na+: 100 mM NMDG vs 100 mM NaCl; for Kb: allosteric ternary complex model
T1 construct: expressed in transfected cells
T1 sequence (P14416 whole entry E95A): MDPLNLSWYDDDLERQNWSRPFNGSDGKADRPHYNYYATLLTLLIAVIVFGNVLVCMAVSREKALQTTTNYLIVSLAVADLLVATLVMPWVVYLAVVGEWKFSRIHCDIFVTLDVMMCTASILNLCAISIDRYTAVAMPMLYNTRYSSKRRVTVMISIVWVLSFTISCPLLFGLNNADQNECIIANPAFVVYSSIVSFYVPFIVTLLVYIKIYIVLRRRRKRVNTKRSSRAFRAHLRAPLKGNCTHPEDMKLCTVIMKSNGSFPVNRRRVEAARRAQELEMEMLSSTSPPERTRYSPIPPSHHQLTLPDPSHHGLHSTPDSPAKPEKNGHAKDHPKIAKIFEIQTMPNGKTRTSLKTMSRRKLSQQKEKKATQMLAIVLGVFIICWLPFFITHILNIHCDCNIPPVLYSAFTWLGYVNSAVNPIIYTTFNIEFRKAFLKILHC
Description: (§1) Flp-In CHO cells (Invitrogen) were transfected with the pOG44 vector encoding Flp recombinase and the pDEST vector encoding the wild-type or mutant c-Myc-D2LR at a ratio of 9:1 using polyethylenimine (Polysciences, Warrington, PA) as transfection reagent. 24 hours after transfection the cells were subcultured and the medium was supplemented with 700 μg/ml hygromycin B as selection agent to obtain cells stably expressing the c-Myc-D2LR. FlpIn CHO cells stably expressing the wild-type or mutant c-Myc-D2LR were grown in Dulbecco’s modified Eagle’s medium (DMEM) supplemented with 10% fetal bovine serum and 200 µg/mL of Hygromycin-B, and maintained at 37 °C in a humidified incubator containing 5% CO2. When cells were approximately 90% confluent, they were harvested and centrifuged (300 g, 3 min, 4 °C). The resulting pellet was resuspended in assay buffer either in the presence (20 mM HEPES, 100 mM NaCl, 6 mM MgCl2, 1 mM EGTA, and 1 mM EDTA, pH 7.4) or absence (20 mM HEPES, 100 mM NMDG, 6 mM MgCl2, 1 mM EGTA, and 1 mM EDTA, pH 7.4) of sodium ions. The centrifugation procedure was repeated. The intact cell pellet was then resuspended in assay buffer and homogenized using a Polytron homogenizer for three 10 s intervals on the maximum setting, with 30 s periods on ice between each burst. The homogenate volume was brought up to 30 mL, the sample was centrifuged (350 g, 5 min, 4 °C), the pellet was discarded, and the supernatant was centrifuged at 30 000 g for 1 hr at 4 °C. The resulting pellet was resuspended in 5 mL of assay buffer, and the protein content was determined using the bicinchoninic acid assay (BCA assay). The homogenate was then separated into 500 µl aliquots and stored at −80 °C until it was required for binding assays.
(§2) Binding was terminated by fast-flow filtration over GF/B membranes using a Brandel harvester followed by three washes with ice-cold 0.9% NaCl. Bound radioactivity was measured in a Tri-Carb 2900TR liquid scintillation counter (PerkinElmer).
(§3) Values of α > 1 denote positive cooperativity, values < 1 (but > 0) denote negative cooperativity and values = 1 denote neutral cooperativity.
(§4) IC50 values obtained from the inhibition curves were converted to Ki values using the Cheng and Prusoff equation[35].

WT c-myc-D2LR = target: T2, WT c-myc-D2LR (Homo sapiens, UniProt P14416); experiment: as above; conditions: for fold loss in affinity in the absence of Na+ vs presence of Na+: WT D2LR, 100 mM NMDG vs 100 mM NaCl; for Ki / α (cooperativity factor with [3H]spiperone) / logα (logarithm of the cooperativity factor between the modulator and [3H]spiperone) / Kb: WT
T2 construct: expressed in transfected cells
T2 sequence (P14416 whole entry): as the sequence (P14416 whole entry E95A) above, with A95E counted along it
Description: as §1, §2, §3, §4

D80^2.50A c-myc-D2LR = target: T3, D80^2.50A c-myc-D2LR (Homo sapiens, UniProt P14416, D80A); experiment: as above; conditions: for Ki / logα (logarithm of the cooperativity factor between the modulator and [3H]spiperone) / α (cooperativity factor with [3H]spiperone) / Kb: D80A; for Ki: 100 µM GppNHp; for Kb: allosteric ternary complex model
T3 construct: expressed in transfected cells
T3 sequence (P14416 whole entry D80A): as the sequence (P14416 whole entry E95A) above, with D80A, A95E counted along it
Description: as §1, §2, §3, §4

[1] = system: D2R Tyr^7.43 to cysteine mutant; conditions: cited from earlier work
[2] = 100 mM NMDG (no Na+), 0.15 nM [3H]spiperone, read-out: Ki (converted)
[3] = 100 mM NaCl, 0.15 nM [3H]spiperone, read-out: pKi (converted)
[4] = 100 mM NMDG (no Na+), 0.15 nM [3H]spiperone, 100 µM GppNHp, read-out: pKi (converted)
[5] = 100 mM NaCl, 0.15 nM [3H]spiperone, 100 µM GppNHp, read-out: pKi (converted)
[6] = 100 mM NaCl, 0.15 nM [3H]spiperone, read-out: Ki (converted)
[7] = 100 mM NMDG (no Na+), 0.15 nM [3H]spiperone
[8] = 100 mM NMDG (no Na+), 0.15 nM [3H]spiperone, ND = no inhibition of [3H]spiperone binding detected
[9] = 100 mM NaCl, 0.15 nM [3H]spiperone
[10] = 100 mM NMDG (no Na+), 0.5 nM [3H]spiperone
[11] = 100 mM NaCl, 0.5 nM [3H]spiperone

Structure (SMILES): CCCN1CCc2ccc(C#N)cc2C1 [MIPS1071, 2-propyl-1,2,3,4-tetrahydroisoquinoline-7-carbonitrile]
Ki (E95^2.65A c-myc-D2LR; [2]): 7600 nM
Ki (E95^2.65A c-myc-D2LR; [3]): 1260 nM
fold loss in affinity at E95A mutant vs WT (E95^2.65A c-myc-D2LR; absence of Na+ (100 mM NMDG)): not changed
fold loss in affinity at E95A mutant vs WT (E95^2.65A c-myc-D2LR; presence of Na+ (100 mM NaCl)): not changed
fold loss in affinity in the absence of Na+ vs presence of Na+ (WT c-myc-D2LR): 9 fold
Ki (WT c-myc-D2LR; [4]): 12000 nM
Ki (WT c-myc-D2LR; [5]): 1260 nM
fold loss in affinity at D80A mutant vs WT (D80^2.50A c-myc-D2LR; 100 mM NaCl): 7 fold
Ki (D80^2.50A c-myc-D2LR; [2]): 7200 nM
Ki (D80^2.50A c-myc-D2LR; [6]): 9300 nM

Structure (SMILES): CN1CN(c2ccccc2)C2(CCN(CCCC(=O)c3ccc(F)cc3)CC2)C1=O [N-methyl-spiperone]
fold decrease in affinity upon mutation of Tyr^7.43 to cysteine [1]: 3 fold

Structure (SMILES): CCN1CCCC1CNC(=O)c1cc(S(N)(=O)=O)ccc1OC (stereo not shown) [sulpiride]
fold decrease in affinity upon mutation of Tyr^7.43 to cysteine [1]: 185 fold

More lines, main results first:

fold by which the WT vs E95A difference in affinity is greater in the presence of Na+ than in the absence of Na+ (E95^2.65A c-myc-D2LR): 2 fold
fold decrease in affinity at E95A mutant in the absence of Na+ vs E95A in the presence of Na+ (E95^2.65A c-myc-D2LR): 3 fold
α (cooperativity factor with [3H]spiperone) (E95^2.65A c-myc-D2LR; [7]): 0.06
logα (logarithm of the cooperativity factor between the modulator and [3H]spiperone) (E95^2.65A c-myc-D2LR; [8]): −1.24 ± 0.16
Kb (E95^2.65A c-myc-D2LR; [7]): 617 nM
logα (logarithm of the cooperativity factor between the modulator and [3H]spiperone) (E95^2.65A c-myc-D2LR; [9]): −1.39 ± 0.11
α (cooperativity factor with [3H]spiperone) (E95^2.65A c-myc-D2LR; [9]): 0.04
Kb (E95^2.65A c-myc-D2LR; [9]): 212 nM
fold loss in affinity at E95A mutant vs WT (E95^2.65A c-myc-D2LR; presence of Na+ (100 mM NaCl)): 2 fold
fold loss in affinity in the absence of Na+ vs presence of Na+ (WT c-myc-D2LR): 6 fold and 5 fold
α (cooperativity factor with [3H]spiperone) (WT c-myc-D2LR; [7]): 0.03
logα (logarithm of the cooperativity factor between the modulator and [3H]spiperone) (WT c-myc-D2LR; [8]): −1.48 ± 0.12
Kb (WT c-myc-D2LR; 100 mM NMDG (no Na+), allosteric ternary complex model, 0.15 nM [3H]spiperone, read-out: KB (converted)): 631 nM
logα (logarithm of the cooperativity factor between the modulator and [3H]spiperone) (WT c-myc-D2LR; [9]): −1.45 ± 0.12
α (cooperativity factor with [3H]spiperone) (WT c-myc-D2LR; [9]): 0.04
Kb (WT c-myc-D2LR; 100 mM NaCl, allosteric ternary complex model, 0.15 nM [3H]spiperone, read-out: KB (converted)): 100 nM
fold loss in affinity at D80A mutant vs WT (D80^2.50A c-myc-D2LR; 100 mM NaCl): 6 fold
logα (logarithm of the cooperativity factor between the modulator and [3H]spiperone) (D80^2.50A c-myc-D2LR; [7]): −0.87 ± 0.12
α (cooperativity factor with [3H]spiperone) (D80^2.50A c-myc-D2LR; [7]): 0.13
Kb (D80^2.50A c-myc-D2LR; [7]): 468 nM
α (cooperativity factor with [3H]spiperone) (D80^2.50A c-myc-D2LR; [9]): 0.23
logα (logarithm of the cooperativity factor between the modulator and [3H]spiperone) (D80^2.50A c-myc-D2LR; 100 mM NaCl, 0.15 nM [3H]spiperone, ND = no inhibition of [3H]spiperone binding detected): −0.62 ± 0.06
Kb (D80^2.50A c-myc-D2LR; [9]): 631 nM
fold loss of negative cooperativity at D80A mutant vs WT (D80^2.50A c-myc-D2LR; cooperativity with [3H]spiperone): 4 fold and 6 fold
Structure (SMILES): N#Cc1ccc2c(c1)CN(CC[C@H]1CC[C@H](NC(=O)c3cc4cccc(F)c4[nH]3)CC1)CC2 [MIPS1868]
fold loss in affinity at E95A mutant vs WT (E95^2.65A c-myc-D2LR; absence of Na+ (100 mM NMDG)): no significant difference; also recorded: no additional effect

fold by which the WT vs E95A difference in affinity is greater in the presence of Na+ than in the absence of Na+ (E95^2.65A c-myc-D2LR): 2 fold
fold decrease in affinity at E95A mutant in the absence of Na+ vs E95A in the presence of Na+ (E95^2.65A c-myc-D2LR): 5 fold
Ki (E95^2.65A c-myc-D2LR; [2]): 4800 nM
Ki (E95^2.65A c-myc-D2LR; [6]): 1200 nM
Ki (E95^2.65A c-myc-D2LR; [3]): 1150 nM
fold loss in affinity at E95A mutant vs WT (E95^2.65A c-myc-D2LR; absence of Na+ (100 mM NMDG)): 3 fold
fold loss in affinity at E95A mutant vs WT (E95^2.65A c-myc-D2LR; presence of Na+ (100 mM NaCl)): 5 fold
fold loss in affinity in the absence of Na+ vs presence of Na+ (WT c-myc-D2LR): 6 fold
Ki (WT c-myc-D2LR; [4]): 1740 nM
Ki (WT c-myc-D2LR; [5]): 275 nM
Ki (WT c-myc-D2LR; 100 mM NaCl, complete displacement of [3H]spiperone, read-out: Ki): 275 nM
fold loss in affinity at D80A mutant vs WT (D80^2.50A c-myc-D2LR; 100 mM NaCl): 5 fold
Ki (D80^2.50A c-myc-D2LR; 100 mM NMDG (no Na+), 0.15 nM [3H]spiperone, read-out: pKi (converted)): 1480 nM
Ki (D80^2.50A c-myc-D2LR; [6]): 1500 nM
Ki (D80^2.50A c-myc-D2LR; [3]): 1510 nM
Structure (SMILES): CC(=O)N[C@H]1CC[C@H](CCN2CCc3ccc(C#N)cc3C2)CC1 [MIPS1059, N-((trans)-4-(2-(7-cyano-3,4-dihydroisoquinolin-2(1H)yl)ethyl)cyclohexyl)acetamide]

fold by which the WT vs E95A difference in affinity is greater in the presence of Na+ than in the absence of Na+ (E95^2.65A c-myc-D2LR): 2 fold
fold decrease in affinity at E95A mutant in the absence of Na+ vs E95A in the presence of Na+ (E95^2.65A c-myc-D2LR): 7 fold
logα (logarithm of the cooperativity factor between the modulator and [3H]spiperone) (E95^2.65A c-myc-D2LR; [10]): −1.89 ± 0.31
α (cooperativity factor with [3H]spiperone) (E95^2.65A c-myc-D2LR; [10]): 0.01
Kb (E95^2.65A c-myc-D2LR; [10]): 812 nM
logα (logarithm of the cooperativity factor between the modulator and [3H]spiperone) (E95^2.65A c-myc-D2LR; [11]): −1.91 ± 0.12
α (cooperativity factor with [3H]spiperone) (E95^2.65A c-myc-D2LR; [11]): 0.01
Kb (E95^2.65A c-myc-D2LR; [11]): 123 nM
fold loss in affinity at E95A mutant vs WT (E95^2.65A c-myc-D2LR; absence of Na+ (100 mM NMDG)): 2 fold
fold loss in affinity at E95A mutant vs WT (E95^2.65A c-myc-D2LR; presence of Na+ (100 mM NaCl)): 4 fold
Kb (WT c-myc-D2LR; 0.15 nM [3H]spiperone, radioligand completely displaced, read-out: pKB (converted)): 9.77 nM
logα (logarithm of the cooperativity factor between the modulator and [3H]spiperone) (WT c-myc-D2LR; [10]): −2.26 ± 0.39
α (cooperativity factor with [3H]spiperone) (WT c-myc-D2LR; [10]): 0.005
Kb (WT c-myc-D2LR; 100 mM NMDG (no Na+), allosteric ternary complex model, 0.5 nM [3H]spiperone, read-out: KB (converted)): 398 nM
logα (logarithm of the cooperativity factor between the modulator and [3H]spiperone) (WT c-myc-D2LR; [11]): −1.90 ± 0.08
α (cooperativity factor with [3H]spiperone) (WT c-myc-D2LR; [11]): 0.01
Kb (WT c-myc-D2LR; 100 mM NaCl, allosteric ternary complex model, 0.5 nM [3H]spiperone, read-out: KB (converted)): 30 nM and 30.2 nM
fold loss in affinity at D80A mutant vs WT (D80^2.50A c-myc-D2LR; 100 mM NaCl): > 10 fold
logα (logarithm of the cooperativity factor between the modulator and [3H]spiperone) (D80^2.50A c-myc-D2LR; [11]): −2.13 ± 0.27
α (cooperativity factor with [3H]spiperone) (D80^2.50A c-myc-D2LR; [11]): 0.007
Kb (D80^2.50A c-myc-D2LR; [11]): 316 nM
Structure (SMILES): N#Cc1ccc2c(c1)CN(CC[C@H]1CC[C@H](NC(=O)c3cc4ccncc4[nH]3)CC1)CC2 [MIPS1726]
